Data on nine compounds can be found in ChEMBL document CHEMBL5030563, “Structure-Based Design of Dual-Acting Compounds Targeting Adenosine A2A Receptor and Histone Deacetylase as Novel Tumor Immunotherapeutic Agents” (J Med Chem, 2021).

Some results are limits rather than exact numbers.

Data set [1] in a line: MRT in ICR mouse at 20 mg/kg, po by LC-MS/MS analysis. It counts as ADME, organism-based. Particulars: in vivo.
Data set [2] can be described thus: AUC (0 to infinity) in ICR mouse at 20 mg/kg, po by LC-MS/MS analysis. It counts as ADME, organism-based. Further details: time infinity, route oral, dose 20 mg/kg. The settings on record: in vivo.
The nature of data set [3]: AUC (0 to t) in ICR mouse at 20 mg/kg, po by LC-MS/MS analysis. On the set-up: dose 20 mg/kg. It counts as ADME, organism-based. Particulars: in vivo.
The nature of data set [4]: Cmax in ICR mouse at 20 mg/kg, po by LC-MS/MS analysis. Particulars: in vivo. On the set-up: route oral, dose 20 mg/kg. It counts as ADME, organism-based.
Data set [5] in a line: Tmax in ICR mouse at 20 mg/kg, po by LC-MS/MS analysis. The settings on record: in vivo. It counts as ADME, organism-based.
Data set [6] in a line: Half life in ICR mouse at 20 mg/kg, po by LC-MS/MS analysis. It counts as ADME, organism-based. The settings on record: in vivo.
A short description of data set [7]: Elimination rate constant in ICR mouse at 20 mg/kg, po up to 24 hrs by LC-MS/MS analysis. It counts as ADME, organism-based. The settings on record: in vivo.
The next data set has as its system CT26. The data set is described as follows: Antiproliferative activity against mouse CT26 cells measured after 72 hrs by CCK8 assay. Particulars: Mus musculus, CT26. It counts as functional. For orientation: Formazan colour is commonly taken as a measure of viable cells.
The next data set relates to MC-38. The data set can be described thus: Antiproliferative activity against mouse MC38 cells measured after 72 hrs by CCK8 assay. It counts as functional. Particulars: Mus musculus, MC-38.
The target in another data set is Histone deacetylase 1 (Homo sapiens, UniProt Q13547). The data set is described as follows: Inhibition of HDAC1 (unknown origin) assessed as release of 7-amino-4-methylcoumarin incubated in room temperature for 15 min measured by Spectra max microtitre plate reader.
Sequence of Histone deacetylase 1 (Q13547 whole entry): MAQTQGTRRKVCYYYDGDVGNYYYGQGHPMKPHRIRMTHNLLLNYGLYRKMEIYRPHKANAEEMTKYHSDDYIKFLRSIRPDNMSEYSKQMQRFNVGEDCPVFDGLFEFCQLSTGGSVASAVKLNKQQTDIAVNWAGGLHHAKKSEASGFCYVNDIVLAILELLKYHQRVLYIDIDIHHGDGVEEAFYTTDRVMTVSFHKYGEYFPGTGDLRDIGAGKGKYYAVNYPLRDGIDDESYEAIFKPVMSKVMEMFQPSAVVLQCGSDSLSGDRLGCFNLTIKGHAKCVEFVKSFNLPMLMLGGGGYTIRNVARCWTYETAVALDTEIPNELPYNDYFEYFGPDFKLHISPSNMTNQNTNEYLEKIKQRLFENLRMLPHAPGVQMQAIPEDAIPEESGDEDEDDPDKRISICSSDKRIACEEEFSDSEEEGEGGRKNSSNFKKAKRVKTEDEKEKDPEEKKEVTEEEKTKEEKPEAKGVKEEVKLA
The target in another data set is Adenosine receptor A2a (Homo sapiens, UniProt P29274). The data set can be described thus: Displacement of [3H]SCH58261 from adenosine A2A receptor membrane (unknown origin) measured after 60 mins by scintillation counting analysis. It counts as cell membranes. A general note: Loss of bound radioactivity is the signal in a displacement assay; it reports binding, not function.
Sequence of Adenosine receptor A2a (P29274 whole entry): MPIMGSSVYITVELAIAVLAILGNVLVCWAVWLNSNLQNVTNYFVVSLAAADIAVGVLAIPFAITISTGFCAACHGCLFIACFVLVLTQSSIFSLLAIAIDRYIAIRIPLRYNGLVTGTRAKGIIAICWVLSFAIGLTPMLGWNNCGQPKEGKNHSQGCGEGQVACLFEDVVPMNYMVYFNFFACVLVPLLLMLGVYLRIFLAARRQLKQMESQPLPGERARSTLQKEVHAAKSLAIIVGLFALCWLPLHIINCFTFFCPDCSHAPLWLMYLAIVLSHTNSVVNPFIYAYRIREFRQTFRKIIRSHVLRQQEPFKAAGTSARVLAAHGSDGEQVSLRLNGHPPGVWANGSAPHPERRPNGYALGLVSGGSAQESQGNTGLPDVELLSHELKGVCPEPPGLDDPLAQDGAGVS

For data set [8], the target named is T1, Protein deacetylase HDAC6 (Homo sapiens, UniProt Q9UBN7).
T1 sequence (Q9UBN7 whole entry): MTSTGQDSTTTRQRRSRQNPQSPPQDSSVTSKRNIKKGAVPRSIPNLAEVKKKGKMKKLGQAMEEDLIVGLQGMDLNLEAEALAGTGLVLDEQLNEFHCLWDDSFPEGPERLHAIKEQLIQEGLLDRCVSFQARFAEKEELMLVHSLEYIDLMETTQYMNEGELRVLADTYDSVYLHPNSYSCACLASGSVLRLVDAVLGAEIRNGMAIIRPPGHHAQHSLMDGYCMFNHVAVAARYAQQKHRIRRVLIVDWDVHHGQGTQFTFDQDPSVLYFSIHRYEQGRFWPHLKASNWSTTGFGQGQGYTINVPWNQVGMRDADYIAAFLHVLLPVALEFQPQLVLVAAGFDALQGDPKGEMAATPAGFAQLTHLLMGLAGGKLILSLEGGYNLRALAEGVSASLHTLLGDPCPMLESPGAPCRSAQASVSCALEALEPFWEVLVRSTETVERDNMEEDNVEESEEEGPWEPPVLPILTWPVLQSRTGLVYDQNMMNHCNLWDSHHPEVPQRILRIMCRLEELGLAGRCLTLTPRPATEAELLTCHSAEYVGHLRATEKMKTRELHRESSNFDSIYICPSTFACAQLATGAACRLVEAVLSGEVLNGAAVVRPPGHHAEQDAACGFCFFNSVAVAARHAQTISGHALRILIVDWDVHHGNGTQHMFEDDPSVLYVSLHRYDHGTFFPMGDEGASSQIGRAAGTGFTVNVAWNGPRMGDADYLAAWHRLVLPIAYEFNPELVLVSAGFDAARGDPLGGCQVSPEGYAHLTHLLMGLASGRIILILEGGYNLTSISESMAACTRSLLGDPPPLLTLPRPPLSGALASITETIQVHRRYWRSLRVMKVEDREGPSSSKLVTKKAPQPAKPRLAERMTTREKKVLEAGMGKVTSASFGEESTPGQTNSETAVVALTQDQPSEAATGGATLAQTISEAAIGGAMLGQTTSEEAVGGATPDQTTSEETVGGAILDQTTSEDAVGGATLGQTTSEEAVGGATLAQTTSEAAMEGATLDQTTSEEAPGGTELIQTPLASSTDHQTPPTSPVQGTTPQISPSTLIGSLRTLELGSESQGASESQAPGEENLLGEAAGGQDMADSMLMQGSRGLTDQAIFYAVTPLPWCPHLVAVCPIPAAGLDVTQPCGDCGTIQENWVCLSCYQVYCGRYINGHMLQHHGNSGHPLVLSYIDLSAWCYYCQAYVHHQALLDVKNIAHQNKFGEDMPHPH
The data set is described as follows: Inhibition of HDAC6 (unknown origin) assessed as release of 7-amino-4-methylcoumarin incubated in room temperature for 15 min measured by Spectra max microtitre plate reader.

Another data set concerns the target T2, Adenosine receptor A3 (Homo sapiens, UniProt P0DMS8).
T2 sequence (P0DMS8 whole entry): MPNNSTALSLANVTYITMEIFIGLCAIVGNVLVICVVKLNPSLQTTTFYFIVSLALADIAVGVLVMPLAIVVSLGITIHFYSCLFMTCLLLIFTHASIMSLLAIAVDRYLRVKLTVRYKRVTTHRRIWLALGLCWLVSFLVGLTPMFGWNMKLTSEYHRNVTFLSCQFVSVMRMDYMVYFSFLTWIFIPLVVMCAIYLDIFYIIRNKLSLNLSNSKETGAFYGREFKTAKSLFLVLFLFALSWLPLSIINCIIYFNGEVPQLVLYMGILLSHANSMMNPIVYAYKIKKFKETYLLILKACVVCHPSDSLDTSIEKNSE
The data set is described as follows: Displacement of [3H]DPCPX from human adenosine A3 receptor membrane (unknown origin) measured after 60 mins by scintillation counting analysis. It counts as cell membranes.

`N#Cc1cccc(-c2nc3c4cnn(CCc5ccc(C(=O)Nc6ccccc6N)cc5)c4nc(N)n3n2)c1`: in data set [1], the mean residence time (MRT) – broadly, a mean duration of stay, worked out from the concentration-time curve – was found to be 2.44 h. Moreover, in data set [2], the AUC(0-inf) (in general, total exposure, with the tail of the curve extrapolated) was determined as 602 ng·h/mL. Further, in [3], the exposure AUC(0-t) (commonly the area under the concentration-time curve up to a stated or last time point) was determined as 588 ng·h/mL. Besides, the Cmax (in general, the maximum level reached in the sampled fluid or tissue) in [4] turned out to be 598 ng/mL. In addition, the Tmax (commonly the time from dosing to the highest level) in [5] worked out at 15 min. Further, the half-life (usually how long it takes for the measured level to halve) in data set [6] is 245 min. Also, the k el at 24 h in data set [7] is 5.67e-05 s⁻¹. Also, the values for the 50% growth inhibitory concentration (GI50) in the data set with CT26 and with MC-38 were 6.9 µM and 5.4 µM, respectively. For the same compound, the concentration for half-maximal inhibition (IC50) – broadly, the midpoint of a concentration-inhibition curve – on Histone deacetylase 1 amounted to 113 nM. Also, the inhibitory constant (Ki) (in general, a measure of affinity in units of concentration, obtained from inhibition or displacement) at Adenosine receptor A2a was found to be 6.5 nM.
For `Nc1nc(NCCc2ccc(/C=C/C(=O)NO)cc2)nc2nc(-c3ccco3)nn12`, the GI50 (as a rule, the concentration giving 50% growth inhibition) is 42.9 µM in the data set with CT26 and 40.5 µM in the data set on MC-38. Moreover, the 50% inhibitory concentration (IC50) at Histone deacetylase 1 was 10.2 nM; in data set [8] it was 69 nM. The compound also had a Ki on Adenosine receptor A2a of 37.8 nM.
As for `Nc1ccccc1NC(=O)c1ccc(CNc2nc(N)n3nc(-c4ccco4)nc3n2)cc1`, the GI50 in the data set with CT26 was 16.5 µM; in the data set on MC-38, 14.1 µM. Moreover, the half-inhibitory concentration (IC50) at Histone deacetylase 1 is 65.7 nM; in [8], > 10000 nM. This compound had a Ki at Adenosine receptor A2a of 34.8 nM.
Consider `Nc1nc2c(cnn2CCc2ccccc2)c2nc(-c3ccco3)nn12` [SCH-58261], for which the Ki on Adenosine receptor A3 is > 10 µM. For the same compound, the 50% growth inhibitory concentration (GI50) in the data set on CT26 and with MC-38 was > 100 µM in each case.
As for `Nc1nc(NCCCc2ccc(C(=O)NO)cc2)nc2nc(-c3ccco3)nn12`, the GI50 in the data set with CT26 and in the data set with MC-38 was > 100 µM each time. In addition, the IC50 on Histone deacetylase 1 stood at 23.7 nM; in [8], 4.9 nM. The compound also returned a Ki at Adenosine receptor A2a of 8.4 nM.
For `Nc1nc(NCCc2ccc(C(=O)NO)cc2)nc2nc(-c3ccco3)nn12`, the 50% growth inhibitory concentration (GI50) in the data set on CT26 and in the data set with MC-38 was > 100 µM in each case. Further, the half-maximal inhibitory concentration (IC50) at Histone deacetylase 1 stood at 104 nM; in data set [8], 14.8 nM. The same compound showed an inhibition constant (Ki) on Adenosine receptor A2a of 6.3 nM.
Consider `Nc1nc(NCCc2ccc(NC(=O)CCCCCCC(=O)NO)cc2)nc2nc(-c3ccco3)nn12`, for which the 50% growth inhibitory concentration (GI50) with CT26 and in the data set on MC-38 was > 100 µM throughout. In addition, the concentration for half-maximal inhibition (IC50) on Histone deacetylase 1 amounted to 11.5 nM; in [8], 5.9 nM. On Adenosine receptor A2a, the affinity corresponds to a Ki of 11.3 nM.
In the case of `Nc1nc2c(cnn2CCCCCC(=O)NO)c2nc(-c3ccco3)nn12`, the concentration for 50% growth inhibition (GI50) in the data set on CT26 was 17.8 µM; in the data set on MC-38, 14 µM. Besides, the 50% inhibitory concentration (IC50) turned out to be 27 nM at Histone deacetylase 1 and 15 nM in data set [8]. The affinity on Adenosine receptor A2a, expressed as Ki, was 77.8 nM.
Consider `Nc1ccccc1NC(=O)c1ccc(OCCNc2nc(N)n3nc(-c4ccco4)nc3n2)cc1`, for which the concentration for 50% growth inhibition (GI50) in the data set with CT26 amounted to 32.4 µM; in the data set on MC-38, 36.9 µM. The values for the IC50 (on Histone deacetylase 1; in data set [8]) were 68.5 nM and > 10000 nM, respectively. At Adenosine receptor A2a, this compound registered a Ki of 4.9 nM.
